The target of this assay is T1, hDHHC20 (Homo sapiens, UniProt Q5W0Z9).
T1 sequence (Q5W0Z9 1-365): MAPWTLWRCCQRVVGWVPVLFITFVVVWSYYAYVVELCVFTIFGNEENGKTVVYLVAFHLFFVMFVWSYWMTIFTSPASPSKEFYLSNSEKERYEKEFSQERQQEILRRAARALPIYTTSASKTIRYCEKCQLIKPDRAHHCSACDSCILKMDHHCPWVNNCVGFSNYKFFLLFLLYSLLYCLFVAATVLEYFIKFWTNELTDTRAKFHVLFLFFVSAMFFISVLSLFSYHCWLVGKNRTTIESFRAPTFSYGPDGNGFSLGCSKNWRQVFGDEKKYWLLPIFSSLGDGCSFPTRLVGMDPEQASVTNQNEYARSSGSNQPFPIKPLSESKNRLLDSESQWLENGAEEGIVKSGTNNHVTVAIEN
The assay can be described thus: coupled-enzyme PAT activity inhibition assay. Type of assay: biochemical.

pIC50: −log10 of the molar value.

IC50 data for 1 molecule are collected here from publication PMC8851515 (Proceedings of the National Academy of Sciences of the …, 2022).

`CCCCCCCCCCCCCCC(Br)C(=O)O` (stereo not shown) [2-bromopalmitic acid] showed a pIC50 of 5.35.
